Assay results reported in patent US8501732B2, “Aminomethyl quinolone compounds” (Hoffmann-La Roche Inc., priority 2011, dated 2013).

Biological target: JNK1 (Homo sapiens (Human), UniProt P45983)
Experiment: In Vitro JNK1 Assay (TR-FRET, phosphorylation of GST-c-Jun)
Format: biochemical
Conditions: 0.2 nM active JNK1 kinase, 26.7 nM GST-c-Jun, 2 μM ATP, 30 min at room temperature
Protocol: Phosphorylation of GST-c-Jun protein (amino acid residues 1-79) was measured as JNK1 activity. […] The reaction buffer contained 50 mM HEPES, pH […], 1 mM DTT, 0.1 mM Na3VO4 and 0.2 mg/mL BSA. After 30 min. incubation at room temperature, the reaction was terminated by adding buffer containing 8 mM EDTA and a polyclonal anti-phospho-c-Jun antibody (Cell Signaling #9261L), followed by an additional incubation of 30 min. at room temperature. […] Time-resolved Fluorescence Resonance Energy Transfer (TR-FRET) signals were measured 1 hr. later on the EnVision reader (Perkin Elmer). Compound potency was assessed at 10 serially diluted concentrations. Percentage of inhibition at each concentration was determined to generate an IC50 value for each compound.

Chain of JNK1 (P45983 whole entry): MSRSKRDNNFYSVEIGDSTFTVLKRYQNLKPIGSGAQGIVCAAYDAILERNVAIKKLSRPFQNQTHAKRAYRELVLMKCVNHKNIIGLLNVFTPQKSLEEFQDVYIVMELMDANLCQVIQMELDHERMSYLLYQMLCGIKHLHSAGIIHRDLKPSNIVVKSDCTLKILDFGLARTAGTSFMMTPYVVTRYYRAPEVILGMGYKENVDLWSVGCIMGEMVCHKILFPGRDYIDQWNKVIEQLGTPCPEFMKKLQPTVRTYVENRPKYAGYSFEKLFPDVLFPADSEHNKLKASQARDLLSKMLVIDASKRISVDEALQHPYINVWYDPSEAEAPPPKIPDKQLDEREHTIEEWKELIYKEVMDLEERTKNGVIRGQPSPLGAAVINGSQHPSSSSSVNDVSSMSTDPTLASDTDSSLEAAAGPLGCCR

Row | Structure (SMILES) | IC50
1 | O=c1c(CNc2nc3ccccc3[nH]2)cn(-c2ccccc2)c2cc(Cl)ccc12 [Example I-176, 3-[(1H-Benzoimidazol-2-ylamino)-methyl]-7-chloro-1-phenyl-1H-quinolin-4-one] | 850 nM
2 | O=C(NCc1cn(-c2ccccc2)c2cc(Cl)ccc2c1=O)Oc1ccccc1 [Example I-179, (7-Chloro-4-oxo-1-phenyl-1,4-dihydro-quinolin-3-ylmethyl)-carbamic acid phenyl ester] | 2000 nM
3 | N#C/N=C(/NCc1cn(-c2ccccc2)c2cc(Cl)ccc2c1=O)N1CCOCC1 [Example I-177, [(7-Chloro-4-oxo-1-phenyl-1,4-dihydro-quinolin-3-ylmethyl)-amino]-morpholin-4-yl-methylene-cyanamide] | 1200 nM
4 | CC(=O)N1CCC(NC(=O)NCc2cn(-c3ccccc3)c3cc(Cl)ccc3c2=O)CC1 [Example I-198, 1-(1-Acetyl-piperidin-4-yl)-3-(7-chloro-4-oxo-1-phenyl-1,4-dihydro-quinolin-3-ylmethyl)-urea] | 2200 nM
5 | O=C(NCc1cn(-c2ccccc2Cl)c2cc(Cl)ccc2c1=O)c1ccc(-c2cn[nH]c2)nc1 [Example I-102, N-[7-Chloro-1-(2-chloro-phenyl)-4-oxo-1,4-dihydro-quinolin-3-ylmethyl]-6-(1H-pyrazol-4-yl)-nicotinamide] | 740 nM
6 | COC(=O)[C@H]1CC[C@H](NC(=O)NCc2cn(-c3ccccc3)c3cc(Cl)ccc3c2=O)CC1 [Example I-189, 4-[3-(7-Chloro-4-oxo-1-phenyl-1,4-dihydro-quinolin-3-ylmethyl)-ureido]-cyclohexanecarboxylic acid methyl ester] | 2000 nM
7 | O=C(NCc1cn(-c2ccccc2)c2cc(Cl)ccc2c1=O)c1cccc(F)c1F [Example I-59, N-(7-Chloro-4-oxo-1-phenyl-1,4-dihydro-quinolin-3-ylmethyl)-2,3-difluoro-benzamide] | 1700 nM
8 | O=c1c(CNc2nc3ccccc3s2)cn(-c2ccccc2)c2cc(Cl)ccc12 [Example I-175, 3-(Benzothiazol-2-ylaminomethyl)-7-chloro-1-phenyl-1H-quinolin-4-one] | 700 nM
9 | COC(=O)c1ccc(NC(=O)NCc2cn(-c3ccccc3)c3cc(Cl)ccc3c2=O)cc1 [Example I-206, 4-[3-(7-Chloro-4-oxo-1-phenyl-1,4-dihydro-quinolin-3-ylmethyl)-ureido]-benzoic acid methyl ester] | 2700 nM
10 | O=C(NCc1cn(-c2ccccc2)c2cc(Cl)ccc2c1=O)NC1CCCC1 [Example I-184, 1-(7-Chloro-4-oxo-1-phenyl-1,4-dihydro-quinolin-3-ylmethyl)-3-cyclopentyl-urea] | 920 nM
11 | O=C(NCc1cn(-c2ccccc2)c2cc(Cl)ccc2c1=O)c1cn(Cc2ccccc2)nn1 [Example I-55, 1-Benzyl-1H-[1,2,3]triazole-4-carboxylic acid (7-chloro-4-oxo-1-phenyl-1,4-dihydro-quinolin-3-ylmethyl)-amide] | 700 nM

Continued by falling IC50, values first:

Row | IC50 | Structure (SMILES)
12 | 700 nM | CC(C)(C)OC(=O)N[C@H]1CC[C@H](NC(=O)NCc2cn(-c3ccccc3)c3cc(Cl)ccc3c2=O)CC1 [Example I-182, {4-[3-(7-Chloro-4-oxo-1-phenyl-1,4-dihydro-quinolin-3-ylmethyl)-ureido]-cyclohexyl}-carbamic acid tert-butyl ester]
13 | 650 nM | COc1ccc(NC(=O)NCc2cn(-c3ccccc3)c3cc(Cl)ccc3c2=O)cc1 [Example I-203, 1-(7-Chloro-4-oxo-1-phenyl-1,4-dihydro-quinolin-3-ylmethyl)-3-(4-methoxy-phenyl)-urea]
14 | 640 nM | COC(=O)c1c(CNC(=O)C2CCN(S(C)(=O)=O)CC2)c(=O)c2ccc(Cl)cc2n1-c1ccccc1 [Example I-131, 7-Chloro-3-{[(1-methanesulfonyl-piperidine-4-carbonyl)-amino]-methyl}-4-oxo-1-phenyl-1,4-dihydro-quinoline-2-carboxylic acid methyl ester]
15 | 430 nM | COC(=O)c1c(CNC(=O)c2ccccc2Cl)c(=O)c2ccc(Cl)cc2n1-c1ccccc1 [Example I-148, 7-Chloro-3-[(2-chloro-benzoylamino)-methyl]-4-oxo-1-phenyl-1,4-dihydro-quinoline-2-carboxylic acid methyl ester]
16 | 300 nM | NC(=O)c1ccc(C(=O)NCc2cn(-c3ccccc3)c3cc(Cl)ccc3c2=O)cc1 [Example I-50, N-(7-Chloro-4-oxo-1-phenyl-1,4-dihydro-quinolin-3-ylmethyl)-terephthal-amide]
17 | 240 nM | CN(C)C(=O)c1c(CNC(=O)c2ccc(F)cc2)c(=O)c2ccc(Cl)cc2n1-c1ccccc1 [Example I-20, 7-Chloro-3-[(4-fluoro-benzoylamino)-methyl]-4-oxo-1-phenyl-1,4-di-hydro-quinoline-2-carboxylic acid dimethylamide]
18 | 190 nM | O=C(NCc1cn(-c2ccccc2)c2cc(Cl)ccc2c1=O)NC1CCN(C(=O)c2ccccc2)CC1 [Example I-194, 1-(1-Benzoyl-piperidin-4-yl)-3-(7-chloro-4-oxo-1-phenyl-1,4-dihydro-quinolin-3-yl-methyl)-urea]
19 | 180 nM | COC(=O)c1c(CNC(=O)c2ccc(N(C)C)cc2)c(=O)c2ccc(OC)cc2n1-c1ccccc1 [Example I-167, 3-[(4-Dimethylamino-benzoylamino)-methyl]-7-methoxy-4-oxo-1-phenyl-1,4-dihydro-quinoline-2-carboxylic acid methyl ester]
20 | 140 nM | CN(C)C(=O)c1c(CNC(=O)c2ccc(N3CCOCC3)cc2)c(=O)c2ccc(Cl)cc2n1-c1ccccc1 [Example I-17, 7-Chloro-3-[(4-morpholin-4-yl-benzoylamino)-methyl]-4-oxo-1-phenyl-1,4-dihydro-quinoline-2-carboxylic acid dimethylamide]
21 | 140 nM | O=C(NCc1cn(-c2ccccc2)c2cc(Cl)ccc2c1=O)c1ccc2cc[nH]c2c1 [Example I-46, 1H-Indole-6-carboxylic acid (7-chloro-4-oxo-1-phenyl-1,4-dihydro-quinolin-3-ylmethyl)-amide]
22 | 140 nM | O=c1c(CNc2cc(N3CCCCC3)ncn2)cn(-c2ccccc2)c2cc(Cl)ccc12 [Example I-173, 7-Chloro-1-phenyl-3-[(6-piperidin-1-yl-pyrimidin-4-ylamino)-methyl]-1H-quinolin-4-one]
23 | 110 nM | COC(=O)c1c(CNc2nccc3ccccc23)c(=O)c2ccc(Cl)cc2n1-c1ccccc1 [Example I-207, 7-Chloro-3-(isoquinolin-1-ylaminomethyl)-4-oxo-1-phenyl-1,4-dihydro-quinoline-2-carboxylic acid methyl ester]
24 | 100 nM | COC(=O)c1c(CNC(=O)c2ccccn2)c(=O)c2ccc(Cl)cc2n1-c1ccccc1 [Example I-146, 7-Chloro-4-oxo-1-phenyl-3-{[(pyridine-2-carbonyl)-amino]-methyl}-1,4-dihydro-quinoline-2-carboxylic acid methyl ester]
25 | 100 nM | O=C(NCc1cn(-c2ccccc2F)c2cc(F)ccc2c1=O)c1ccc(N2CCS(=O)(=O)CC2)nc1 [Example I-107, 6-(1,1-Dioxo-1-thiomorpholin-4-yl)-N-[7-fluoro-1-(2-fluoro-phenyl)-4-oxo-1,4-dihydro-quinolin-3-ylmethyl]-nicotinamide]
26 | 29 nM | O=C(NCc1c(-c2ncco2)n(-c2ccccc2)c2cc(Cl)ccc2c1=O)c1ccc(Cl)nc1 [Example I-6, 6-Chloro-N-(7-chloro-2-oxazol-2-yl-4-oxo-1-phenyl-1,4-dihydro-quinolin-3-ylmethyl)-nicotinamide]
